Source: patent US11551827B2, “Perfluorinated 1-alkoxypropenes in dielectric fluids and electrical devices” (priority 2017, dated 2023)

Experiment: Gaseous dielectric breakdown voltage measurement (Hipotronics OC60D-A dielectric strength tester)
Assay type: physicochemical
Conditions: for Dielectric breakdown voltage: gas, 0.1 inch (2.5 mm) gap, copper electrodes; for Performance as electrical insulator and interrupter (in words): judged from the dielectric breakdown voltage values in Tables 2 and 3
Method: The gaseous dielectric breakdown voltages of PE-1, PE-2, CE-1, CE-2, and CE-3 were measured experimentally using a Hipotronics OC60D-A dielectric strength tester (available from Hipotronics, Brewster, N.Y., USA), which was modified to allow measurements on low pressure gases. The electrode configuration consisted of two copper electrodes separated by a 0.1 inch (2.5 mm) gap housed in a gas tight PFTE (polytetrafluoroethylene) test chamber. The test chamber was first evacuated and then PE-1, PE-2, CE-1, CE-2, or CE-3 was charged to full vapor pressure and evacuated to the measured pressures indicated in Tables 2 and 3. The dielectric breakdown voltage (measured in kV) was measured after each evacuation to determine the dielectric strength and the results are summarized in Tables 2 and 3.

SMILES	Dielectric breakdown voltage (pressure 13.9 kPa)	Dielectric breakdown voltage (pressure 27.6 kPa)	Dielectric breakdown voltage (pressure 41.4 kPa)	Dielectric breakdown voltage (pressure 55.2 kPa)	Dielectric breakdown voltage (pressure 69.0 kPa)	Dielectric breakdown voltage (pressure 82.8 kPa)	Dielectric breakdown voltage (pressure 110 kPa)	Dielectric breakdown voltage (pressure 124 kPa)	Dielectric breakdown voltage (pressure 139 kPa)	Dielectric breakdown voltage (pressure 20 kPa)	Dielectric breakdown voltage (pressure 40 kPa)	Dielectric breakdown voltage (pressure 60 kPa)	Dielectric breakdown voltage (pressure 80 kPa)	Dielectric breakdown voltage (pressure 100 kPa)	Dielectric breakdown voltage (pressure 120 kPa)	Dielectric breakdown voltage (pressure 140 kPa)	Performance as electrical insulator and interrupter (in words)
FS(F)(F)(F)(F)F [CE-2, Sulfur hexafluoride]	4.6 kV	5.4 kV	7.8 kV	9.5 kV	10.9 kV	12.5 kV	15.3 kV	16.7 kV	18.0 kV								
FC1(F)C(F)(F)C1(F)F [CE-3, Perfluorocyclopropane]	4.6 kV	6.4 kV	8.0 kV	9.5 kV	10.6 kV	12.0 kV	14.7 kV	16.0 kV	17.1 kV								
FC(F)=C(F)C(F)(F)F [CE-1, Hexafluoropropene]										8.8 kV	9.8 kV	11.5 kV	13.9 kV	16.3 kV	18.4 kV	20.1 kV	
FC(OC(F)(F)F)=C(F)C(F)(F)F [PE-2, 1,2,3,3,3-Pentafluoro-1-(Perfluoromethoxy)Prop-1-Ene]										8.8 kV	10.9 kV	15.6 kV	19.5 kV	22.7 kV	25.7 kV	28.9 kV	excellent electrical insulators and interrupters
FC(OC(F)(F)C(F)(F)F)=C(F)C(F)(F)F [PE-1, 1,2,3,3,3-Pentafluoro-1-(Perfluoroethoxy)Prop-1-Ene]										8.7 kV	13.5 kV	18.7 kV					excellent electrical insulators and interrupters
